Where two headings read alike, the source gives them in different places.
Experiments:
[1] = not told
[2] = not told; remark: listed apart in the source
[3] = Permeability of vitelline membrane of decalcified quail eggs (agent reaching the yolk), model of the human blood brain barrier
[4] = Spectrophotometric absorbance of yolk of decalcified quail eggs after incubation with agent; type: in vitro ADME
Protocol: (§1) An Ultrospect III spectrophotometer (Pharmacia, Cambridge, England) was recently calibrated by Spectrofuge Corporation of North Carolina, Inc. (Durham, N.C.). Blank quartz cuvettes were selected with the smallest deviation in absorbance. Standard solutions of 2.6×10^−3M acetaminophen and 4.4×10^−3 2-cholorprocaine were prepared. Approximate peak ultraviolet wavelengths were determined with the standard solutions in methanol and PBS. Fine adjustment of the optimum wavelength was performed by retrofit of Beer's law plots of the standards and dilutions. Optimum absorbance wavelengths for acetaminophen and 2-chloroprocaine were 300 nm 329 nm, respectively. Optimum absorbance wavelengths for acetaminophen and 2-choroprocaine dissolve in PBS were 319 nm and 340, respectively. (Table 3)
(§2) The decalcified eggs were soaked in solutions for 2 or 12 hours and then placed in a home freezer prior to analysis. The quail eggs were opened with a razor knife and the denatured albumen and yolk were separated. In most samples the vitelline membrane could be easily separated from the yolk. Samples of the denatured albumen and yolk were dissolved in 5 ml of methanol or PBS and centrifuged at 2700 rpm for 5 minutes. The supernatants were then clarified through a 0.2 micrometer filter (MILLEX-FG, Merck Millipore, Ltd). Clarification of the PBS samples was more difficult than the methanol samples. The clear filtrate was placed in quartz cuvettes. Any air bubbles were eliminated and the samples were analyzed in the spectrophotometer. (Tables 4&5)

[5] = Spectrophotometric absorbance of albumen of decalcified quail eggs after incubation with agent; type: in vitro ADME
Protocol: as §1, §2

[6] = in PBS, 4.4 × 10^−2 m/l, 340 nm, 12 hours
[7] = in methanol, 4.4 × 10^−2 m/L, 329 nm, 2 hours
[8] = in methanol, 4.4 × 10^−2 m/L, 329 nm, 12 hours

SMILES | Permeability (outer and inner membrane) [1] | Permeability (vitelline membrane) [2] | also measured
Cc1cc(C2(c3ccc(O)c(C)c3)OS(=O)(=O)c3ccccc32)ccc1O [Creosol red] | + | − | 
O=C1OC2(c3ccc(O)cc3Oc3cc(O)ccc32)c2ccccc21 [Fluorescein] | + | − | 
[K+].[K+].[O]=[Cr](=[O])([O-])[O][Cr](=[O])(=[O])[O-] [Potassium dichromate] |  |  | Permeability (vitelline membrane) ([3]; 0.01M, incubation time 2 hours): −
CCOCC [Ether, diethyl ether] | + |  | 
CN(C)c1ccc(/N=N/c2ccccc2C(=O)O)cc1 [Methyl red] | + | − | 
CN(C)c1ccc(C(=C2C=CC(=[N+](C)C)C=C2)c2ccccc2)cc1 [Malachite green] |  |  | Permeability (vitelline membrane) ([3]; 0.01M, incubation time 2 hours): −
CCN(CC)CCOC(=O)c1ccc(N)cc1Cl [2-Chloroprocaine] |  |  | Yolk (abs) [4, 6]: 1.04 abs; Yolk (abs) [4, 7]: 1.37 abs; Yolk (abs) [4, 8]: 1.71 abs; Permeability (vitelline membrane) ([3]; agent in PBS, 2-Chloroprocaine 4 × 10^−2 M, Acetaminophen 2.6 × 10^−1 M, incubation time 12 hours): +; Permeability (vitelline membrane) ([3]; agent in methanol, 2-Chloroprocaine 4 × 10−2 M, Acetaminophen 2.6 × 10^−1 M, incubation time 2 & 12 hours): +; Crossing of the vitelline membrane ([3]; spectroscopic analysis): crossed the vitelline membrane; Albumen (abs) [5, 6]: 0.48 abs; Albumen (abs) [5, 7]: 1.86 abs; Albumen (abs) [5, 8]: 2.52 abs
CCN(Cc1cccc(S(=O)(=O)[O-])c1)c1ccc(C(=C2C=CC(=[N+](CC)Cc3cccc(S(=O)(=O)[O-])c3)C=C2)c2ccccc2S(=O)(=O)[O-])cc1.[Na+].[Na+] [FD&C Blue #1] | + | − | 
CC(=O)Nc1ccc(O)cc1 [Acetaminophen] | + | + | Yolk (abs) ([4]; quail, 2 h): 2.40 abs; Albumen (abs) ([5]; quail, 2 h): 2.85 abs; Crossing of the vitelline membrane [2]: crossed the vitelline membrane
C=C[C@H]1C[N@@]2CC[C@H]1C[C@H]2[C@H](O)c1ccnc2ccc(OC)cc12 [Quinine] | + | − | 
CCO [Ethanol] | + | + | Crossing of the vitelline membrane [2]: crossed the vitelline membrane

Source: patent publication US20170299579A1, “VITELLINE MEMBRANE AS A MODEL OF THE BLOOD BRAIN BARRIER” (priority 2016, published 2017)
